From PMC9318133 (International Journal of Molecular Sciences, 2022)

Legend:
mouse CB2 receptors = biological target: T1, mouse CB2 receptors (Mus musculus, UniProt P47936); experiment: [3H]-CP-55,940 competition binding, mouse spleen membranes
T1 construct: membranes from the mouse brain and spleen were used, respectively; from tissue; host or cells: mouse spleen membranes, CD-1 mice
Description: Following excision from mice, tissues were suspended in 50 mM Tris HCl, pH 7.4, at 4 °C. The mouse brain and spleen tissues were homogenized with a Polytron and subsequently centrifuged for 10 min at 2000× g. The resulting supernatants were filtered and centrifuged for 20 min at 40,000× g, and the pellets were used for competition binding experiments.
Competition binding experiments were carried out by incubating 0.5 nM [3H]-CP-55,940 (Perkin Elmer Life and Analytical Sciences, Waltham, MA, USA) and different concentrations of the tested compounds for 90 or 60 min at 30 °C for CB1 or CB2 receptors, respectively. […] Non-specific binding was determined in the presence of 1 μM WIN 55,212-2 [92]. Bound and free radioactivity were separated by filtering the assay mixture through Whatman GF/C glass fiber filters using a Brandel cell harvester (Brandel Instruments, Unterföhring, Germany). The filter-bound radioactivity was counted using a Packard Tri Carb 2810 TR scintillation counter (Perkin Elmer Life and Analytical Sciences, Waltham, MA, USA).
The protein concentration was determined according to a Bio-Rad method with bovine serum albumin as a reference standard. Inhibitory binding constants, Ki, were calculated from the IC50 values according to the Cheng and Prusoff equation:Ki = IC50/(1 + [C*]/KD*) where [C*] is the concentration of the radioligand and KD* its dissociation constant. […]

human CB2 receptors = biological target: T2, human CB2 receptors (Homo sapiens, UniProt P34972); experiment: Cyclic AMP assay (forskolin-stimulated) in CHO cells transfected with human CB2 receptors; format: cell-based
T2 construct: host or cells: CHO cells
T2 sequence (P34972 whole entry): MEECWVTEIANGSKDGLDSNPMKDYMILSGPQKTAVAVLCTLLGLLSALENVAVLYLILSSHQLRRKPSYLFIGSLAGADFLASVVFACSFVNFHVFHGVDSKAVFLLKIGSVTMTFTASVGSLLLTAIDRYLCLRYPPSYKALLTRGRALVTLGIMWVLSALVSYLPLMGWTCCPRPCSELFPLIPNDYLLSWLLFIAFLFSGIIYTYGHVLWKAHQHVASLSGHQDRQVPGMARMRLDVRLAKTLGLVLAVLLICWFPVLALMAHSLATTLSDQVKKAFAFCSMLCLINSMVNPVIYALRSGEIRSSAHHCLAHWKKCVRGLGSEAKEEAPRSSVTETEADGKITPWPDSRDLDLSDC
Description: CHO cells transfected with human CB1 or CB2 receptors were washed with PBS, detached with trypsin, and centrifuged for 10 min at 200× g.
Functional experiments were analyzed by non-linear regression analysis using the equation for a sigmoid concentration–response curve (GraphPad Prism, San Diego, CA, USA). All the data are expressed as the mean ± SEM of three independent experiments.

T1 sequence (P47936 whole entry): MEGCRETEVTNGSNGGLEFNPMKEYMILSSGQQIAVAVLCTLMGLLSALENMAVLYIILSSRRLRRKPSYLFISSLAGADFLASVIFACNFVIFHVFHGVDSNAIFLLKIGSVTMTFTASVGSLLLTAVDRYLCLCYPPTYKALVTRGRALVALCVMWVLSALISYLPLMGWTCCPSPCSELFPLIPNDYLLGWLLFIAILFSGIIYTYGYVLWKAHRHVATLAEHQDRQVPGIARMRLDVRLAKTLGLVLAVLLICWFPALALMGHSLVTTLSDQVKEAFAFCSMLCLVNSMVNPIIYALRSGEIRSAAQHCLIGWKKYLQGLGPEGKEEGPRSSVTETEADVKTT

Q: `CCCCCn1cc(Cc2cccc3ccccc23)c2ccccc21` [JWH-175, 3-(1-naphthalenylmethyl)-1-pentyl-1H-indole] was tested. Which Ki (mouse CB2 receptors) did it give?
A: 487 ± 39 nM

Q: What about the IC50 (human CB2 receptors) of the same compound?
A: 864 ± 61 nM
